Article PMC7435983, “Galantamine-Curcumin Hybrids as Dual-Site Binding Acetylcholinesterase Inhibitors” (Molecules, 2020)
Like-named read-outs stand apart in the source and are kept apart here. Marks after values point to notes of the source that are not given here.

Columns and labels:
[1] = system: Neuro-2A cells; test: Neurotoxicity test, MTT-dye reduction assay; format: cell-based, Murine; details: Mus musculus, N2a, 72-h incubation
Method: The neurotoxicity of the GAL-CU hybrids was tested on Neuro-2A cells, as described in Materials and methods. […] Only five of the hybrids were less toxic than CU. One of them, compound 8b, is among the best-scored compounds; two of them, compounds 4e and 4f, are from the middle GoldScore range; and two of them, compounds 4a and 4b, belong to the low GoldScore range.
Murine neuroblastoma Neuro-2A cells (German collection DSMZ, Braunschweig, Germany) were cultivated under standard conditions: complete medium (90% DMEM, 10% heat-inactivated FBS, and non-essential amino acids); 37 °C and 5% CO2 in fully humidified atmosphere. The cell line was kept in the logarithmic growth phase by splitting 1:4 once a week using trypsin/EDTA. About 30% of the cells grew like neuronal cells. For the experimental evaluation of the cytotoxicity Neuro-2A, cells were plated in 96-well flat-bottomed cell culture plates at the recommended density of 1 × 10^6 cells/25cm^2. After 24 h, the cells were treated with various concentrations of the investigational compounds, and after 72-h incubation, an MTT-dye reduction assay was performed. Briefly, at the end of incubation, an MTT stock solution (10mg/mL in PBS) was added (0.01 mL/well). Plates were further incubated at 37 °C for 4 h. Next, the formazan crystals were dissolved by the addition of 0.110 mL/well 5% formic acid in 2-propanol (v/v). Absorption was measured at 580nm wavelength on an automated ELISA reader Labexim LMR1. At least six wells per concentration were used, and data were processed using the GraphPad Prism 5.0 software 2.0 (San Diego, CA, USA).

[2] = target: eeAChE (Electrophorus electricus AChE) (Electrophorus electricus, UniProt O42275); test: biochemical
Sequence of eeAChE (Electrophorus electricus AChE) (O42275 24-633): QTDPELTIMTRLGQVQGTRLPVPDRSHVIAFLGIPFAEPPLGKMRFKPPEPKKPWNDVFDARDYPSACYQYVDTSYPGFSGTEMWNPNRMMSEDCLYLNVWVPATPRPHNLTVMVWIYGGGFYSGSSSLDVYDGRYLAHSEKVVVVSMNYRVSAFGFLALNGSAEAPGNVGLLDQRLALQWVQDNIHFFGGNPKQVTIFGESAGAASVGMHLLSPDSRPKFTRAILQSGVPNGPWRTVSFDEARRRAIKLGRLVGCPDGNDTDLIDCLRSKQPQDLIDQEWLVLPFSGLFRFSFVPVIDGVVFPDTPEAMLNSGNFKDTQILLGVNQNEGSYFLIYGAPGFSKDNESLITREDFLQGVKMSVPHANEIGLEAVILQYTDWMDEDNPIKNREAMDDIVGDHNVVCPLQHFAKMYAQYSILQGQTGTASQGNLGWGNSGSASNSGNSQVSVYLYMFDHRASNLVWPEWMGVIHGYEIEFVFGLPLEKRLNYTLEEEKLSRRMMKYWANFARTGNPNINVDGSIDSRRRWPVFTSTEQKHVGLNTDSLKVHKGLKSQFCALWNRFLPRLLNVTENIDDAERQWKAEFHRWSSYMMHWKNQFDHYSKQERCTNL
Method: As the docking studies were performed on rhAChE, while for the in vitro measurements was used AChE from electric eel (eeAChE), it was reasonably to question their relevance.
AChE activity was assayed as described by Ellman et al., with some modifications. […] The mixtures were incubated for 30 min at room temperature before the addition of 30 μL of the substrate solution (15 μL […], 15 μL 0.6 mM ATCI in buffer, pH 7.6).

[3] = Prediction of PK parameters by QSPR models
From the text: The key PK parameters were predicted by quantitative […] (QSPRs) models derived previously. Three PK parameters were modelled: the steady state volume of distribution (VD^ss), free fraction of drug in plasma (fu) and unbound clearance (CLu). […]

[4] = system: Neuro-2A cells; details: cited from earlier work
[5] = cited from earlier work

| SMILES | IC50 [1] [µM] | IC50 [2] [µM] | Times More Active Than GAL [2] | further results |
| --- | --- | --- | --- | --- |
| COc1ccc2c3c1O[C@H]1C[C@@H](O)C=C[C@@]31CCN(CCCCC(=O)/C=C/c1ccccc1)C2 [4a] | 30.7 | 0.046 | 75 | – |
| COc1ccc(/C=C/C(=O)CCCCN2CC[C@@]34C=C[C@H](O)C[C@@H]3Oc3c(OC)ccc(c34)C2)cc1 [4b] | 52.5 | 0.02 | 186 | – |
| COc1cccc(/C=C/C(=O)CCCCN2CC[C@@]34C=C[C@H](O)C[C@@H]3Oc3c(OC)ccc(c34)C2)c1 [4c] | 24.1 | – | – | – |
| COc1ccc2c3c1O[C@H]1C[C@@H](O)C=C[C@@]31CCN(CCCCC(=O)/C=C/c1ccc3c(c1)OCO3)C2 [4e] | 42.9 | 0.036 | 98 | – |
| COc1ccc2c3c1O[C@H]1C[C@@H](O)C=C[C@@]31CCN(CCCCC(=O)/C=C/c1ccc(C)cc1)C2 [4f] | 34.4 | 0.033 | 110 | – |
| COc1ccc2c3c1O[C@H]1C[C@@H](O)C=C[C@@]31CCN(CCCCC(=O)/C=C/c1cccc(C)c1)C2 [4g] | 23.7 | – | – | – |
| COc1ccc2c3c1O[C@H]1C[C@@H](O)C=C[C@@]31CCN(CCCCC(=O)/C=C/c1ccc(C)c(C)c1)C2 [4h] | 21.9 | – | – | – |
| COc1ccc2c3c1O[C@H]1C[C@@H](O)C=C[C@@]31CCN(Cc1cccc(/C=C/C(=O)c3ccccc3)c1)C2 [6a] | 12.1 | – | – | – |
| COc1ccc(C(=O)/C=C/c2cccc(CN3CC[C@@]45C=C[C@H](O)C[C@@H]4Oc4c(OC)ccc(c45)C3)c2)cc1 [6b] | 7.91 | – | – | – |
| COc1ccc(/C=C/C(=O)c2cccc(CN3CC[C@@]45C=C[C@H](O)C[C@@H]4Oc4c(OC)ccc(c45)C3)c2)cc1 [8b] | 28.9 | 0.086 | 41 | – |
| COc1cccc(/C=C/C(=O)c2cccc(CN3CC[C@@]45C=C[C@H](O)C[C@@H]4Oc4c(OC)ccc(c45)C3)c2)c1 [8c] | 25.6 | – | – | – |
| COc1ccc2c3c1O[C@H]1C[C@@H](O)C=C[C@@]31CCN(Cc1cccc(C(=O)/C=C/c3ccc(C)cc3)c1)C2 [8f] | 24.3 | – | – | – |
| COc1ccc2c3c1O[C@H]1C[C@@H](O)C=C[C@@]31CCN(Cc1cccc(C(=O)/C=C/c3cccc(C)c3)c1)C2 [8g] | 17.8 | – | – | – |
| COc1ccc2c3c1O[C@H]1C[C@@H](O)C=C[C@@]31CCN(Cc1cccc(C(=O)/C=C/c3ccc(C)c(C)c3)c1)C2 [8h] | 25 | – | – | – |
| COc1cc(/C=C/C(=O)CC(=O)/C=C/c2ccc(O)c(OC)c2)ccc1O [CU, (1E,6E)-1,7-Bis(4-hydroxy-3-methoxyphenyl)hepta-1,6-diene-3,5-dione, reference compound] | 26.3 | – | – | – |
| COc1ccc2c3c1O[C@H]1C[C@@H](O)C=C[C@@]31CCN(C)C2 [GAL, Galantamine] | – | – | – | half-life [3]: 4.74 h; IC50 [4]: > 50 µM; VDss [5]: 2.30 ^a L/kg; fu ([5]; free fraction of drug in plasma): 0.83 ^a; CL ([5]; total clearance): 0.336 ^a L/h/kg |
